Measured values as given in patent US11389415B2, “Methods of regulating cannabinoid receptor activity-related disorders and diseases” (The United States of America as represented by the …, priority 2012, dated 2022).
“Also recorded” adds a separate entry of the source. Where two headings read alike, the source gives them in different places.

Key:
HepG2 cells [1] = assay: [3H]-Thymidine incorporation assay in HepG2 cells; type: cell-based, human
Method: (§1) Maintenance and Treatment of Cell Lines. Human HepG2 hepatocarcinoma cells and human U87MG glioma cells (ATCC, Manassas, Va.) were maintained in EMEM medium supplemented with 1% L-glutamine, 1% sodium pyruvate, 1% penicillin/streptomycin, and 10% FBS (Hyclone, Logan, Utah). The human 1321N1 astrocytoma cells (European Collection of Cell Cultures, Sigma-Aldrich) were cultured in Dulbecco's modified Eagle's medium supplemented with 10% FBS and penicillin/streptomycin. All cell lines were cultured at 37° C. in 5% CO2, and the medium was replaced every 2-3 days.
(§2) Cells were seeded in 12-well plates at approximately 50,000 cells/well and incubated at 37° C. After 24 hours, the wells were rinsed with PBS and replaced with serum-free medium containing the appropriate concentration of the test compounds. After another 24-hour incubation at 37° C., 1 μCi of [^3H]-thymidine was added to each well and incubated at 37° C. for 16 hours. [^3H]-Thymidine incorporation into DNA was monitored after the cells were washed twice with PBS and then lysed in 600 μL of 0.1N NaOH for 30 minutes with shaking. The lysate was then mixed with 3 mL of liquid scintillation cocktail (Beckman Coulter, Inc., Brea, Calif.), and radioactivity was measured by liquid scintillation counting using Beckman Coulter LS6000IC Scintillation Counter. Data are shown as CPM incorporated compared to the control cells.

1321N1 cells = assay: Mitogenesis / [3H]-thymidine incorporation in 1321N1 cells; type: cell-based, human; conditions: compound alone
Method: as §1
as §2, with “[^3H]-Thymidine Incorporation Assay. Cells” for “Cells”

U87MG cells = assay: [3H]-Thymidine incorporation in U87MG cells; type: cell-based, human; conditions: compound alone
Method: as §1, §2

HepG2 cells [2] = assay: cAMP accumulation in HepG2 cells; type: cell-based, human; conditions: β-agonists at 10 μM
Method: cAMP Accumulation. HepG2 cells were seeded in 96-well plates and grown to confluency. […] The levels of cAMP accumulated in cells were determined and normalized to the amount of protein per well.

Akt and ERK1/2 = assay: phosphorylation of Akt and ERK1/2 in HepG2 cells (Western blot); type: cell-based, human; conditions: 1 μM, 5, 10 and 30 minutes
Method: Western Blotting. Cells were lysed with RIPA buffer containing EGTA and EDTA (Boston BioProducts, Ashland, Mass.). The lysis buffer was mixed with a protease inhibitor cocktail (Sigma-Aldrich). Protein concentrations were measured using the bicinchoninic acid reagent (Thermo-Pierce Biotechnology, Inc., Rockford, Ill.). […] Western blots were performed according to standard methods. The visualization of immunoreactive bands was performed using the ECL Plus Western Blotting Detection System (GE Healthcare, NJ) and their quantification was done by volume densitometry using Image J software and normalization to β-actin. […] The antibodies were used at a dilution recommended by the manufacturer.

HepG2 cells [3] = assay: Cell cycle analysis by flow cytometry in HepG2 cells; type: cell-based, human; conditions: HepG2, 1 μM, up to 24 hours
Method: Cell Cycle Analysis. Cell cycle distributions were performed by flow cytometry on propidium iodide-stained nuclei prepared by the NIM technique. DNA histograms of at least 10,000 cells acquired on a Becton-Dickinson FACScanto II (BD Biosciences, San Jose, Calif.) were deconvoluted using the Multicycle program (Phoenix Flow Systems) for estimates of the percentage of cells in the G0/1, S, and G2+M phases of the cell cycle. Debris and doublets were removed from the analysis by software algorithms.

HepG2 cells [4] = assay: Apoptosis assay (annexin V/PI flow cytometry) in HepG2 cells; type: cell-based, human; conditions: HepG2, 1 μM, 24 hours
Method: Apoptosis Assay. The degree of apoptosis induced by drug treatment was assayed by flow cytometry using the Alexa Fluor® 488 annexin V/Dead Cell Apoptosis Kit (Invitrogen) following the standard manufacturer's protocol. […] Cells were subsequently harvested after a 24-hour incubation, washed in cold PBS, and resuspended in 100 μL of 1× annexin-binding buffer to maintain a density˜1×10^6 cells/mL, after which 5 μL Alexa Fluor® 488 annexin V and 1 μL 100 μg/mL propidium iodide were added to the cell suspensions. Cells were then incubated at room temperature for 15 minutes and 400 μL 1× annexin-binding buffer was added followed by gentle mixing. Stained cells were analyzed on a BDFACSCanto II flow cytometer.

U87 = assay: tumor cell growth, U87; conditions: Table 6
MCF7 = assay: tumor cell growth, MCF7; conditions: Table 6
A549 = assay: tumor cell growth, A549; conditions: read-out: IC50 (uM), A549 (NSCLC); Table 6
U251 = assay: tumor cell growth, U251; conditions: Table 6
A172 = assay: tumor cell growth, A172; conditions: Table 6
U118 = assay: tumor cell growth, U118; conditions: read-out: IC50 (uM), U118 (CNS); Table 6
CAPAN = assay: tumor cell growth, CAPAN; conditions: Table 6
HEPG2 = assay: tumor cell growth, HEPG2; conditions: Table 6
GL261 = assay: tumor cell growth, GL261; conditions: Table 6
LN-18 = assay: tumor cell growth, LN-18; conditions: Table 6
PANC-1 = assay: tumor cell growth, PANC-1; conditions: Table 6
Du-145 = assay: tumor cell growth, Du-145; conditions: read-out: IC50 (uM), Du-145 (Prostate C); Table 6
MDAMB231 = assay: tumor cell growth, MDAMB231; conditions: Table 6
PC3 [5] = assay: tumor cell growth (CTG), PC3
HT29 [6] = assay: tumor cell growth (CTG), HT29
HT29 [7] = assay: Thymidine (Thy) 96 well, HT29; conditions: read-out: IC50 (uM), HT29 (Colon Cancer)
HEP3B [8] = assay: tumor cell growth (CTG), HEP3B
HCT116 [9] = assay: tumor cell growth (CTG), HCT116
HCT116 [10] = assay: Thymidine (Thy) 96 well, HCT116; conditions: read-out: IC50 (uM), HCT116 (Colon Cancer)
NCIH460 = assay: Thymidine (Thy) 96 well, NCIH460; conditions: read-out: IC50 (uM), NCIH460 (NSCLC)
H460 = assay: tumor cell growth (CTG), H460 / NCIH460
LN-229 = assay: tumor cell growth (CTG), LN-229 / LN229
PC3 [11] = assay: [3H]-Thymidine incorporation in 96-well plates (Thy), PC3; conditions: read-out: IC50 (uM), PC3 (Prostrate Cancer)
HEP3B [12] = assay: [3H]-Thymidine incorporation in 96-well plates (Thy), HEP3B; conditions: read-out: IC50 (uM), HEP3B (Liver Cancer)
LN229 = assay: [3H]-Thymidine incorporation in 96-well plates (Thy), LN229; conditions: read-out: IC50 (uM), LN229 (CNS Cancer)

Compound: C[C@H](Cc1ccc(O)cc1)NC[C@H](O)c1cc(O)cc(O)c1 [(R,R′)-Fen, (R,R′)-Fenoterol]
- % Change in HepG2 cells ([3H]-thymidine incorporation) (HepG2 cells [1]; 1 μM, 24 h): 51.3%
- EC50 (HepG2 cells [1]; Homo sapiens, HepG2, read-out: IC50/EC50 (μM): EC50 (ED50) for increase in [3H]-thymidine incorporation): 1.17 ± 0.37 µM
- effect on proliferation / [3H]-thymidine incorporation (1321N1 cells): reduced proliferation in 1321N1 cells
- effect on cellular proliferation (U87MG cells): had no effect
- cAMP production (HepG2 cells [2]): Neither (R)-isoproterenol nor (R,R′)-Fen, at 10 μM, elicited an increase in cAMP production
- Akt and ERK activation (Akt and ERK1/2): induced a time-dependent increase in Akt and ERK activation
- cell cycle / sub-G1 events (HepG2 cells [3]): no significant alterations of the cell cycle; also recorded: No significant increase in sub-G1 events
- apoptosis compared to control (HepG2 cells [4]): markedly reduced apoptosis

Compound: COc1ccc(C[C@@H](C)NC[C@H](O)c2cc(O)cc(O)c2)cc1 [RR-MF, (R,R′)-4-methoxyfenoterol]
- IC50 (uM), U87 (CNS) (U87): N.E.
- IC50 (uM), MCF7 (Breast C) (MCF7): N.E.
- IC50 (A549): > 50 µM
- IC50 (uM), U251 (CNS) (U251): N.E.
- IC50 (uM), A172 (CNS) (A172): N.E.?
- IC50 (U118): > 50 µM
- IC50 (uM), CAPAN (Pancreatic C) (CAPAN): N.E.
- IC50 (uM), HEPG2 (Liver C) (HEPG2): N.E.
- IC50 (uM), GL261 (CNS) (GL261): N.E.?
- IC50 (uM), LN-18 (CNS) (LN-18): N.E.?
- IC50 (uM), PANC-1 (Pancreatic C) (PANC-1): N.E.
- IC50 (Du-145): > 50 µM
- IC50 (uM), MDAMB231 (Breast C) (MDAMB231): N.E.
- IC50 (PC3 [5]; read-out: IC50 (uM), PC3 (Prostate C), Table 6): > 50 µM
- IC50 (PC3 [5]; read-out: IC50 (uM), PC3 (Prostrate Cancer), 96 well CTG 1 day treatment): > 50 µM
- IC50 (PC3 [5]; read-out: IC50 (uM), PC3 (Prostrate Cancer), 96 well CTG 2 days treatment): > 50 µM
- IC50 (PC3 [5]; read-out: IC50 (uM), PC3 (Prostrate Cancer), 384well CTG 3 days treatment −1): > 50 µM
- IC50 (HT29 [6]; read-out: IC50 (uM), HT29 (Colon C), Table 6): > 50 µM
- IC50 (HT29 [6]; read-out: IC50 (uM), HT29 (Colon Cancer), 96 well CTG 1 day treatment): > 50 µM
- IC50 (HT29 [6]; read-out: IC50 (uM), HT29 (Colon Cancer), 96 well CTG 2 days treatment): > 50 µM
- IC50 (HT29 [6]; read-out: IC50 (uM), HT29 (Colon Cancer), 384well CTG 3 days treatment −1): > 50 µM
- IC50 (HT29 [7]; 96 well Thy 2 days treatment): > 50 µM
- IC50 (HT29 [7]; 96 well Tye 1 day treatment): > 50 µM
- IC50 (HEP3B [8]; read-out: IC50 (uM), HEP3B (Liver C), Table 6): > 50 µM
- IC50 (HEP3B [8]; read-out: IC50 (uM), HEP3B (Liver Cancer), 96 well CTG 1 day treatment): > 50 µM
- IC50 (HEP3B [8]; read-out: IC50 (uM), HEP3B (Liver Cancer), 96 well CTG 2 days treatment): > 50 µM
- IC50 (HEP3B [8]; read-out: IC50 (uM), HEP3B (Liver Cancer), 384well CTG 3 days treatment −1): > 50 µM
- IC50 (HEP3B [8]; read-out: IC50 (uM), HEP3B (Liver Cancer), 384well CTG 3 days treatment −2): > 50 µM
- IC50 (HCT116 [9]; read-out: IC50 (uM), HCT116 (Colon C), Table 6): > 50 µM
- IC50 (HCT116 [9]; read-out: IC50 (uM), HCT116 (Colon Cancer), 96 well CTG 1 day treatment): > 50 µM
- IC50 (HCT116 [9]; read-out: IC50 (uM), HCT116 (Colon Cancer), 96 well CTG 2 days treatment): > 50 µM
- IC50 (HCT116 [9]; read-out: IC50 (uM), HCT116 (Colon Cancer), 384well CTG 3 days treatment −1): > 50 µM
- IC50 (HCT116 [9]; read-out: IC50 (uM), HCT116 (Colon Cancer), 384well CTG 3 days treatment −2): > 50 µM
- IC50 (HCT116 [10]; 96 well Thy 2 days treatment): > 50 µM
- IC50 (HCT116 [10]; 96 well Tye 1 day treatment): > 50 µM
- IC50 (NCIH460; 96 well Thy 2 days treatment): > 50 µM
- IC50 (NCIH460; 96 well Tye 1 day treatment): > 50 µM
- IC50 (H460; read-out: IC50 (uM), H460 (NSCLC), Table 6): > 50 µM
- IC50 (H460; read-out: IC50 (uM), NCIH460 (NSCLC), 96 well CTG 1 day treatment): > 50 µM
- IC50 (H460; read-out: IC50 (uM), NCIH460 (NSCLC), 96 well CTG 2 days treatment): > 50 µM
- IC50 (H460; read-out: IC50 (uM), NCIH460 (NSCLC), 384well CTG 3 days treatment −1): > 50 µM
- IC50 (H460; read-out: IC50 (uM), NCIH460 (NSCLC), 384well CTG 3 days treatment −2): > 50 µM
- IC50 (LN-229; read-out: IC50 (uM), LN229 (CNS Cancer), 96 well CTG 1 day treatment): > 50 µM
- IC50 (LN-229; read-out: IC50 (uM), LN229 (CNS Cancer), 96 well CTG 2 days treatment): > 50 µM
- IC50 (LN-229; read-out: IC50 (uM), LN229 (CNS Cancer), 384well CTG 3 days treatment −1): > 50 µM
- IC50 (LN-229; read-out: IC50 (uM), LN-229 (CNS), Table 6): > 50 µM
- IC50 (PC3 [11]; 96 well Thy 2 days treatment): > 50 µM
- IC50 (PC3 [11]; 96 well Tye 1 day treatment): > 50 µM
- IC50 (HEP3B [12]; 96 well Thy 2 days treatment): 2.35 µM
- IC50 (HEP3B [12]; 96 well Tye 1 day treatment): 2.4 µM
- IC50 (LN229; 96 well Thy 2 days treatment): > 50 µM
- IC50 (LN229; 96 well Tye 1 day treatment): > 50 µM
